Source: patent US20250145605A1, “CRYSTAL FORM AND SALT OF PHENOTHIAZINE COMPOUND, PREPARATION METHOD THEREFOR AND USE THEREOF” (CHENGDU HENGHAO INNOVATIVE SCIENCE AND TECHNOLOGY CO., LTD., priority 2022, published 2025)

Legend:
[1] = tested on: human neuroblastoma SH-SY5Y cells; test: Inhibition of Erastin-induced ferroptosis, CCK8 cell viability test, SH-SY5Y; format: cell-based; conditions: Erastin at a final concentration of 10 M, 24 h
Description: (§1) Experimental method: In this example, a screening model for ferroptosis was constructed to investigate a ferroptosis inhibitor. Specifically, the screening model for ferroptosis was mainly based on the CCK8 cell viability test. Firstly, mouse hippocampal neuronal cells HT22 and human neuroblastoma SH-SY5Y cells were cultured in a dish. 80 μL of cells (5000 cells/well) in logarithmic growth phase were seeded to a 96-well plate per well, and then cultured in an incubator at 37° C., 5% CO2 to allow adhesion of cells. After 24 h, 10 μL of the compound of the present disclosure at various concentrations prepared with the specified medium and 10 μL of Erastin (ferroptosis inducer) at a final concentration of […] were added. 3 replicate wells were set for each compound to ensure the accuracy of the results. A positive control group (10 μL of a certain concentration of the compound Ferrostain-1 and 10 μL of Erastin (ferroptosis inducer) prepared with the same medium were added with reference to the above description). […] The absorbance at 450 nm was detected by a microplate reader to calculate the inhibition rate of ferroptosis by the drug. […]
(§2) The inhibition rate change curve was fitted and the IC50 was calculated by the software GraphPadPrism6.

[2] = tested on: mouse hippocampal neuronal cells HT22; test: Inhibition of Erastin-induced ferroptosis, CCK8 cell viability test, HT22; format: cell-based; conditions: 24 h
Description: as §1, §2

Row | IC50 [1] [nM] | IC50 ([1]; Homo sapiens) [nM] | Compound | IC50 ([2]; HT22, Erastin at a final concentration of 10 µM) [nM] | IC50 ([2]; Mus musculus, HT-22, HT22, Erastin at a final concentration of 10 µM) [nM]
1 | 53.9 | – | CCOC(=O)c1ccc(NC2CCCCC2)c(N)c1 [Ferrostain-1] | 96.2 | –
2 | – | 1.41 | CC(c1ccc(N2CCN(C)CC2)cc1)c1ccc2c(c1)Nc1ccccc1S2 (stereo not shown) | – | 2.87
